Experimental data: ChEMBL document CHEMBL1671673, “In vitro activity of colistin (polymyxin E) against 3,480 isolates of gram-negative bacilli obtained from patients in Canadian hospitals in the CANWARD study, 2007-2008” (Antimicrob Agents Chemother, 2009)

Key:
Type in all cases: functional, organism-based
Parameters in all cases: scale not given: the % may be the effect or the level left
Klebsiella pneumoniae [1] = assay: Antibacterial activity against ESBL-producing Klebsiella pneumoniae assessed as susceptible isolates at minimum inhibitory concentration of <=0.06 ug/ml by CLSI broth microdilution method
Pseudomonas aeruginosa [2] = assay: Antibacterial activity against Gentamicin-resistant Pseudomonas aeruginosa assessed as susceptible isolates at minimum inhibitory concentration of 2 ug/ml by CLSI broth microdilution method
[3] = tested on: Stenotrophomonas maltophilia; assay: Antibacterial activity against Stenotrophomonas maltophilia assessed as susceptible isolates at minimum inhibitory concentration of 0.5 ug/ml by CLSI broth microdilution method
Enterobacter cloacae [4] = assay: Antibacterial activity against Enterobacter cloacae assessed as susceptible isolates at minimum inhibitory concentration of 0.12 ug/ml by CLSI broth microdilution method
Acinetobacter baumannii [5] = assay: Antibacterial activity against Acinetobacter baumannii assessed as susceptible isolates at minimum inhibitory concentration of <=0.06 ug/ml by CLSI broth microdilution method
Escherichia coli = assay: Antibacterial activity against ESBL-producing Escherichia coli assessed as susceptible isolates at minimum inhibitory concentration of 16 ug/ml by CLSI broth microdilution method
Klebsiella aerogenes = assay: Antibacterial activity against Enterobacter aerogenes assessed as susceptible isolates at minimum inhibitory concentration of 1 ug/ml by CLSI broth microdilution method
Serratia marcescens [6] = assay: Antibacterial activity against Serratia marcescens assessed as susceptible isolates at minimum inhibitory concentration of 2 ug/ml by CLSI broth microdilution method
Serratia marcescens [7] = assay: Antibacterial activity against Serratia marcescens assessed as susceptible isolates at minimum inhibitory concentration of 0.25 ug/ml by CLSI broth microdilution method
Proteus mirabilis [8] = assay: Antibacterial activity against Proteus mirabilis assessed as susceptible isolates at minimum inhibitory concentration of 0.12 ug/ml by CLSI broth microdilution method
Proteus mirabilis [9] = assay: Antibacterial activity against Proteus mirabilis assessed as susceptible isolates at minimum inhibitory concentration of 0.5 ug/ml by CLSI broth microdilution method
Pseudomonas aeruginosa [10] = assay: Antibacterial activity against Pseudomonas aeruginosa assessed as susceptible isolates at minimum inhibitory concentration of 8 ug/ml by CLSI broth microdilution method
Pseudomonas aeruginosa [11] = assay: Antibacterial activity against Cefepime-resistant Pseudomonas aeruginosa assessed as susceptible isolates at minimum inhibitory concentration of 1 ug/ml by CLSI broth microdilution method
Enterobacter cloacae [12] = assay: Antibacterial activity against Enterobacter cloacae assessed as susceptible isolates at minimum inhibitory concentration of 0.25 ug/ml by CLSI broth microdilution method
Pseudomonas aeruginosa [13] = assay: Antibacterial activity against Pseudomonas aeruginosa assessed as susceptible isolates at minimum inhibitory concentration of >16 ug/ml by CLSI broth microdilution method
Acinetobacter baumannii [14] = assay: Antibacterial activity against Acinetobacter baumannii assessed as susceptible isolates at minimum inhibitory concentration of 1 ug/ml by CLSI broth microdilution method
Pseudomonas aeruginosa [15] = assay: Antibacterial activity against MDR Pseudomonas aeruginosa assessed as susceptible isolates at minimum inhibitory concentration of 0.5 ug/ml by CLSI broth microdilution method
Klebsiella oxytoca = assay: Antibacterial activity against Klebsiella oxytoca assessed as susceptible isolates at minimum inhibitory concentration of 0.5 ug/ml by CLSI broth microdilution method
Pseudomonas aeruginosa [16] = assay: Antibacterial activity against Ciprofloxacin-resistant Pseudomonas aeruginosa assessed as susceptible isolates at minimum inhibitory concentration of 4 ug/ml by CLSI broth microdilution method
Pseudomonas aeruginosa [17] = assay: Antibacterial activity against Pseudomonas aeruginosa assessed as susceptible isolates at minimum inhibitory concentration of 0.5 ug/ml by CLSI broth microdilution method
Proteus mirabilis [18] = assay: Antibacterial activity against Proteus mirabilis assessed as susceptible isolates at minimum inhibitory concentration of 16 ug/ml by CLSI broth microdilution method
Pseudomonas aeruginosa [19] = assay: Antibacterial activity against Gentamicin-resistant Pseudomonas aeruginosa assessed as susceptible isolates at minimum inhibitory concentration of 0.5 ug/ml by CLSI broth microdilution method
Klebsiella pneumoniae [20] = assay: Antibacterial activity against ESBL-producing Klebsiella pneumoniae assessed as susceptible isolates at minimum inhibitory concentration of 8 ug/ml by CLSI broth microdilution method
Acinetobacter baumannii [21] = assay: Antibacterial activity against Acinetobacter baumannii assessed as susceptible isolates at minimum inhibitory concentration of 0.25 ug/ml by CLSI broth microdilution method
[22] = tested on: Stenotrophomonas maltophilia; assay: Antibacterial activity against Stenotrophomonas maltophilia assessed as susceptible isolates at minimum inhibitory concentration of 8 ug/ml by CLSI broth microdilution method
Enterobacter cloacae [23] = assay: Antibacterial activity against Enterobacter cloacae assessed as susceptible isolates at minimum inhibitory concentration of 16 ug/ml by CLSI broth microdilution method
Pseudomonas aeruginosa [24] = assay: Antibacterial activity against Amikacin-resistant Pseudomonas aeruginosa assessed as susceptible isolates at minimum inhibitory concentration of 0.5 ug/ml by CLSI broth microdilution method
Pseudomonas aeruginosa [25] = assay: Antibacterial activity against Ciprofloxacin-resistant Pseudomonas aeruginosa assessed as susceptible isolates at minimum inhibitory concentration of 1 ug/ml by CLSI broth microdilution method
Pseudomonas aeruginosa [26] = assay: Antibacterial activity against MDR3 Pseudomonas aeruginosa assessed as susceptible isolates at minimum inhibitory concentration of 1 ug/ml by CLSI broth microdilution method
Pseudomonas aeruginosa [27] = assay: Antibacterial activity against Piperacillin-resistant Pseudomonas aeruginosa assessed as susceptible isolates at minimum inhibitory concentration of 2 ug/ml by CLSI broth microdilution method
Pseudomonas aeruginosa [28] = assay: Antibacterial activity against Amikacin-resistant Pseudomonas aeruginosa assessed as susceptible isolates at minimum inhibitory concentration of 8 ug/ml by CLSI broth microdilution method
Pseudomonas aeruginosa [29] = assay: Antibacterial activity against MDR3 Pseudomonas aeruginosa assessed as susceptible isolates at minimum inhibitory concentration of 2 ug/ml by CLSI broth microdilution method
[30] = tested on: Stenotrophomonas maltophilia; assay: Antibacterial activity against Stenotrophomonas maltophilia assessed as susceptible isolates at minimum inhibitory concentration of 0.25 ug/ml by CLSI broth microdilution method

Sequence COLISTIN has an Activity (Klebsiella pneumoniae [1]) of 0%, an Activity (Pseudomonas aeruginosa [2]) of 99% and an Activity [3] of 4.8%. The Activity (Enterobacter cloacae [4]) was 1.6%, the Activity (Acinetobacter baumannii [5]) was 0% and the Activity (Escherichia coli) was 99.7%. It also gave an Activity (Klebsiella aerogenes) of 97.3%, an Activity (Serratia marcescens [6]) of 1.9% and an Activity (Serratia marcescens [7]) of 0%. The Activity (Proteus mirabilis [8]) was 0%, the Activity (Proteus mirabilis [9]) was 0% and the Activity (Pseudomonas aeruginosa [10]) was 99.1%. It also gave an Activity (Pseudomonas aeruginosa [11]) of 39.7%, an Activity (Enterobacter cloacae [12]) of 14% and an Activity (Pseudomonas aeruginosa [13]) of 100%. It also gave an Activity (Acinetobacter baumannii [14]) of 74.2%, an Activity (Pseudomonas aeruginosa [15]) of 5.3% and an Activity (Klebsiella oxytoca) of 74.1%. The Activity (Pseudomonas aeruginosa [16]) was 98.6%, the Activity (Pseudomonas aeruginosa [17]) was 2.5% and the Activity (Proteus mirabilis [18]) was 0.8%. For the same sequence, the Activity (Pseudomonas aeruginosa [19]) was 3.8%, the Activity (Klebsiella pneumoniae [20]) was 97.9% and the Activity (Acinetobacter baumannii [21]) was 0%. The Activity [22] was 50.6%, the Activity (Enterobacter cloacae [23]) was 88.2% and the Activity (Pseudomonas aeruginosa [24]) was 5.3%. It also gave an Activity (Pseudomonas aeruginosa [25]) of 31.3%, an Activity (Pseudomonas aeruginosa [26]) of 36% and an Activity (Pseudomonas aeruginosa [27]) of 92.9%. The Activity (Pseudomonas aeruginosa [28]) was 97.4%, the Activity (Pseudomonas aeruginosa [29]) was 100% and the Activity [30] was 1.2%.
